Measurements taken from the supplement of paper PMC10307832.

Assays:
Assay in all cases: relative viability (nuclei count vs DMSO), 5 days (fraction); higher = more cells survive
201T = system: 201T
Summary of the method: (§1)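 The day after seeding in 1536-well plates, lung cancer cell lines were treated by pin tool with a single drug, or with a fixed anchor-drug dose together with five library-drug doses (not always all listed) in √10 steps. After 5 days, a combined fix-and-stain solution (final 0.05% Triton X-100, 1% formaldehyde, 1 ug/ml Hoechst) was added. Nuclei counted on 4× images gave relative viability as treated counts over vehicle counts, reported as the median of duplicate plates.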

ABC-1 = system: ABC-1
Summary of the method: as §1

BEN = system: BEN
Summary of the method: as §1

NCI-H838 = system: NCI-H838
Summary of the method: as §1

NCI-H520 = system: NCI-H520
Summary of the method: as §1

HCC-44 = system: HCC-44
Summary of the method: as §1

NCI-H460 = system: NCI-H460
Summary of the method: as §1

CAL-12T = system: CAL-12T
Summary of the method: as §1

NCI-H1563 = system: NCI-H1563
Summary of the method: as §1

COR-L 105 = system: COR-L 105
Summary of the method: as §1

NCI-H322M = system: NCI-H322M
Summary of the method: as §1

NCI-H1651 = system: NCI-H1651
Summary of the method: as §1

LU99A = system: LU99A
Summary of the method: as §1

EMC-BAC-2 = system: EMC-BAC-2
Summary of the method: as §1

NCI-H2023 = system: NCI-H2023
Summary of the method: as §1

NCI-H727 = system: NCI-H727
Summary of the method: as §1

PC-3 [JPC-3] = system: PC-3 [JPC-3]
Summary of the method: as §1

HCC-15 = system: HCC-15
Summary of the method: as §1

Cc1cn(-c2cc(NC(=O)c3ccc(C)c(Nc4nccc(-c5cccnc5)n4)c3)cc(C(F)(F)F)c2)cn1 [Nilotinib] + CC(C)C[C@H](NC(=O)[C@H](Cc1ccccc1)NC(=O)c1cnccn1)B(O)O [Bortezomib] (partner 0.002 µM)
relative viability (201T; first compound 0.001 µM): 1.12 | relative viability (201T; first compound 0.003162 µM): 1.09 | relative viability (201T; first compound 0.01 µM): 1.08 | relative viability (201T; first compound 0.1 µM): 1.11 | relative viability (ABC-1; first compound 0.001 µM): 0.291 | relative viability (ABC-1; first compound 0.003162 µM): 0.275 | relative viability (ABC-1; first compound 0.01 µM): 0.23 | relative viability (ABC-1; first compound 0.03162 µM): 0.28 | relative viability (BEN; first compound 0.001 µM): 0.782 | relative viability (BEN; first compound 0.003162 µM): 0.843 | relative viability (BEN; first compound 0.01 µM): 0.788 | relative viability (BEN; first compound 0.1 µM): 0.721 | relative viability (NCI-H838; first compound 0.001 µM): 0.867 | relative viability (NCI-H838; first compound 0.003162 µM): 0.731 | relative viability (NCI-H838; first compound 0.01 µM): 0.976 | relative viability (NCI-H838; first compound 0.03162 µM): 0.673 | relative viability (NCI-H838; first compound 0.1 µM): 0.709 | relative viability (NCI-H520; first compound 0.001 µM): 0.591 | relative viability (NCI-H520; first compound 0.01 µM): 0.776 | relative viability (NCI-H520; first compound 0.03162 µM): 0.526 | relative viability (NCI-H520; first compound 0.1 µM): 0.34 | relative viability (HCC-44; first compound 0.001 µM): 0.885 | relative viability (HCC-44; first compound 0.003162 µM): 0.968 | relative viability (HCC-44; first compound 0.01 µM): 0.853 | relative viability (HCC-44; first compound 0.03162 µM): 0.871 | relative viability (HCC-44; first compound 0.1 µM): 0.873 | relative viability (NCI-H460; first compound 0.001 µM): 0.689 | relative viability (NCI-H460; first compound 0.03162 µM): 0.627 | relative viability (NCI-H460; first compound 0.1 µM): 0.866 | relative viability (CAL-12T; first compound 0.001 µM): 0.968 | relative viability (CAL-12T; first compound 0.01 µM): 0.919 | relative viability (CAL-12T; first compound 0.03162 µM): 0.807 | relative viability (CAL-12T; first compound 0.1 µM): 1.19 | relative viability (NCI-H1563; first compound 0.001 µM): 0.878 | relative viability (NCI-H1563; first compound 0.003162 µM): 0.84 | relative viability (NCI-H1563; first compound 0.01 µM): 0.79 | relative viability (NCI-H1563; first compound 0.03162 µM): 0.704 | relative viability (NCI-H1563; first compound 0.1 µM): 0.623 | relative viability (COR-L 105; first compound 0.001 µM): 0.903 | relative viability (COR-L 105; first compound 0.01 µM): 0.812 | relative viability (COR-L 105; first compound 0.03162 µM): 0.601 | relative viability (COR-L 105; first compound 0.1 µM): 0.333 | relative viability (NCI-H322M; first compound 0.001 µM): 1.27 | relative viability (NCI-H322M; first compound 0.003162 µM): 1.47 | relative viability (NCI-H322M; first compound 0.03162 µM): 1.18 | relative viability (NCI-H322M; first compound 0.1 µM): 1.39 | relative viability (NCI-H1651; first compound 0.001 µM): 0.917 | relative viability (NCI-H1651; first compound 0.003162 µM): 1.05 | relative viability (NCI-H1651; first compound 0.01 µM): 1.07 | relative viability (NCI-H1651; first compound 0.03162 µM): 0.956 | relative viability (NCI-H1651; first compound 0.1 µM): 0.653 | relative viability (LU99A; first compound 0.001 µM): 0.891 | relative viability (LU99A; first compound 0.003162 µM): 1.1 | relative viability (LU99A; first compound 0.01 µM): 1.39 | relative viability (LU99A; first compound 0.03162 µM): 1.19 | relative viability (LU99A; first compound 0.1 µM): 0.371 | relative viability (EMC-BAC-2; first compound 0.001 µM): 1.03 | relative viability (EMC-BAC-2; first compound 0.003162 µM): 1.08 | relative viability (EMC-BAC-2; first compound 0.01 µM): 1.09 | relative viability (EMC-BAC-2; first compound 0.03162 µM): 0.922 | relative viability (EMC-BAC-2; first compound 0.1 µM): 1.05 | relative viability (NCI-H2023; first compound 0.001 µM): 1 | relative viability (NCI-H2023; first compound 0.003162 µM): 0.691 | relative viability (NCI-H2023; first compound 0.01 µM): 1.16 | relative viability (NCI-H2023; first compound 0.03162 µM): 0.925 | relative viability (NCI-H2023; first compound 0.1 µM): 0.206 | relative viability (NCI-H727; first compound 0.001 µM): 0.848 | relative viability (NCI-H727; first compound 0.01 µM): 0.976 | relative viability (NCI-H727; first compound 0.03162 µM): 0.678 | relative viability (NCI-H727; first compound 0.1 µM): 0.484 | relative viability (PC-3 [JPC-3]; first compound 0.001 µM): 0.848 | relative viability (PC-3 [JPC-3]; first compound 0.003162 µM): 0.88 | relative viability (PC-3 [JPC-3]; first compound 0.01 µM): 0.975 | relative viability (PC-3 [JPC-3]; first compound 0.03162 µM): 0.707 | relative viability (PC-3 [JPC-3]; first compound 0.1 µM): 0.46 | relative viability (HCC-15; first compound 0.001 µM): 0.92 | relative viability (HCC-15; first compound 0.003162 µM): 1.41 | relative viability (HCC-15; first compound 0.01 µM): 1.33 | relative viability (HCC-15; first compound 0.03162 µM): 0.855 | relative viability (HCC-15; first compound 0.1 µM): 0.629
